From patent publication US11091476B2, “Protein kinase inhibitors, preparation method and medical use thereof” (Gan & Lee Pharmaceuticals, priority 2015, dated 2021)

How the values were obtained:
Type in all cases: biochemical
[1] = molecular target: CDK6/CyclinD3 (Homo sapiens (Human), UniProt Q00534); assay: CDK kinase inhibitory activity, ADP-Glo Kinase Assay, CDK6/CyclinD3; conditions: for CDK1/CDK6 / CDK9/CDK6 / Pim-1/CDK6: ratio of IC50s; for CDK1/CDK6: selectivity for CDK6 over CDK1; for CDK9/CDK6: selectivity for CDK6 over CDK9; for Pim-1/CDK6: selectivity for CDK6 over Pim-1
Description: (§1) Measurement of CDK kinase inhibitory activity of the compounds of this disclosure.
(§2) In vitro inhibitory effect of the compounds of the disclosure on CDK (CDK1, CDK4 and CDK6) kinase activity was tested by the following method.
(§3) 1.1 Instrument and Kit Information
(§4) 1.2 Experimental Preparation • 1.2.1 Preparation of Kinase Reaction Buffer I: The 5×Reaction Buffer A (Promega; V307A-C) provided in the kit was mixed and diluted with MILLI-Q® H2O and 0.1 M DTT (dithiothreitol) to give 4× kinase buffer, and then MILLI-Q® H2O was further added to finally formulate the solution into 1× Kinase buffer.
(§5) 1 μl of 10 mM standard substance stock solution was taken and added to 9 μl of kinase reaction buffer I and mixed well; then 90 μl of kinase reaction buffer I was added and mixed well; then 100 μl of kinase reaction buffer I was added and mixed well. The final concentration was 50 μM. • b. 40 μl of kinase reaction buffer II was added into B2 to B10 of a 96-well plate, and 50 μl of the above solution was added into B1; • c. 10 μl of solution was taken from well B1, added into B2, and mixed well; then 10 μl of the resulting solution was taken and added into B3, and dilution was carried out in sequence to B9, so as to obtain control solutions that are diluted by 5-fold sequentially. • (2) Preparation of test compound solution: • a. Test compound solutions at a certain concentration were taken, respectively, diluted with kinase reaction buffer I to a final concentration of 50 μM compound solution; • b. 40 μl of kinase reaction buffer II was added into H2 to H10 of the 96-well plate; and 50 μl of the above solution was added into H1; • c. 10 μl of solution was taken from well H1, added into H2, and mixed well; then 10 μl of the resulting solution was taken and added into H3, and dilution was carried out in sequence to H9, so as to obtain test compound solutions that are diluted by 5-fold sequentially. • 1.2.4 Preparation of a mixed solution of reaction substrate and ATP: • a. Preparation of ATP solution: • 200 μl of 0.1 mM ATP solution: 2 μl of 10 mM ATP was added to 198 μl of kinase reaction buffer I; • 300 μl of 50 μM ATP solution: 150 μl of kinase reaction buffer I was added to 150 μl of the above 0.1 mM ATP solution; • b. Preparation of 300 μl of reaction substrate solution: • 150 μl 1 μg/μl reaction substrate stock solution was added to 150 μl kinase reaction buffer I, and mixed well; • c. The above a/b solutions were mixed to obtain mixed solutions, respectively.
(§6) 1.3 Experimental process: • 1.3.1: 2 μl of compound solutions of various concentrations were taken, added to a 384-well plate, and centrifuged 3 minutes; • 1.3.2: 4 μl of kinase solution was added to each well, centrifuged at 5000 rpm and 18° C. for 10 minutes, and shaken on a plate shaker for 10 minutes; • 1.3.3: 4 μl of mixed solution of substrate and ATP was added to each well, centrifuged at 5000 rpm and 18° C. for 10 minutes, and shaken on a plate shaker at 37° C. for 90 minutes; • 1.3.4: The 384-well plate was taken out, and allowed to stand to room temperature; • 1.3.5: 10 μl of ADP-GLO™ reagent was added to each well, centrifuged at 5000 rpm and 18° C. for 18 minutes, and shaken on a plate shaker at 25° C. for 40 minutes, and then the reaction was stopped; • 1.3.6: 20 μl of kinase detection reagent was added to each well, centrifuged at 5000 rpm and 18° C. for 10 minutes, and shaken on a plate shaker at 25° C. for 30 minutes; and • 1.3.7: M1000pro MICROPLATE READER was used to read […] values.
(§7) The inhibition rate of each compound at each concentration point was calculated by the formula as follows and curve fitting was performed by GraphPad Prism 5 software to obtain the IC50 value.

[2] = molecular target: CDK9/CyclinD3 (Homo sapiens (Human), UniProt P50750); assay: Kinase inhibitory activity, ADP-Glo Kinase Assay, CDK9/CyclinD3
Description: as §3, §4, §5, §6, §7

[3] = molecular target: Pim-1 (Homo sapiens (Human), UniProt P11309); assay: Kinase inhibitory activity on Pim-1
Description: as §4, §5, §6, §7

[4] = molecular target: CDK1/CyclinA2 (Homo sapiens (Human), UniProt P06493); assay: CDK kinase inhibitory activity, ADP-Glo Kinase Assay, CDK1/CyclinA2
Description: as §1, §2, §3, §4, §5, §6, §7

IC50 [1] [nM]	CDK1/CDK6 [1]	CDK9/CDK6 [1]	Pim-1/CDK6 [1]	IC50 [2] [nM]	IC50 [3] [nM]	IC50 [4] [nM]	Compound
3.26	25.71	1.40	141.53	4.58	461	–	CCC1(C)C(C)=Nc2c(F)cc(-c3nc(Nc4ccc(N5CCNCC5)cn4)ncc3F)cc21 (stereo not shown) [Example 7, 4-(3-ethyl-7-fluoro-2,3-dimethyl-3H-indol-5-yl)-5-fluoro-N-(5-(piperazin-1-yl)pyridin-2-yl)pyrimidine-2-amino]
12.9	5.94	0.13	5.66	1.74	72.8	76.4	CCC1(C)C(C)=Nc2c(F)cc(-c3nc(Nc4ccc(C5CCN(C)CC5)cn4)ncc3F)cc21 (stereo not shown) [Example 24, 4-(3-ethyl-7-fluoro-2,3-dimethyl-3H-indol-5-yl)-5-fluoro-N-(5-(1-methylpiperidin-4-yl)pyridin-2-yl)pyrimidine-2-amino]
0.39	838.46	6.56	5.69	2.56	2.22	327	CC1=Nc2c(F)cc(-c3nc(Nc4ccc(C5CCNCC5)cn4)ncc3F)cc2C12CCCC2 [Example 13, 5-Fluoro-4-(7′-fluoro-2′-methylspiro[cyclopentane-1,3′-indol]-5′-yl)-N-(5-(piperidin-4-yl)pyridin-2-yl)pyrimidine-2-amino]
43	51.68	5.69	5.12	245	220	–	CC1=Nc2c(F)cc(-c3nc(Nc4ccc(N5CCNCC5)cn4)ncc3F)cc2C1(C)C [Example 1, 5-fluoro-4-(7-fluoro-2,3,3-trimethyl-3H-indol-5-yl)-N-(5-(piperazin-1-yl)pyridin-2-yl)pyrimidine-2-amino]
79.1	–	–	–	–	198	–	CCN1CCN(Cc2ccc(Nc3ncc(F)c(-c4cc(F)c5c(c4)C4(CCCC4)C(C)=N5)n3)nc2)CC1 [Example 3]
4.07	57.40	–	7.03	–	28.6	234	CC1=Nc2ccc(-c3nc(Nc4ccc(N5CCNCC5)cn4)ncc3F)cc2C12CCCC2 [Example 14, 5-fluoro-4-(2′-methylspiro[cyclopentane-1,3′-indol]-5′-yl)-N-(5-(piperazin-1-yl)pyridin-2-yl)pyrimidine-2-amino]
9.02	10.61	1.81	76.10	16.4	686	–	CCC1(CC)C(C)=Nc2c(F)cc(-c3nc(Nc4ccc(N5CCN(C)CC5)cn4)ncc3F)cc21 [Example 16, 4-(3,3-diethyl-7-fluoro-2-methyl-3H-indol-5-yl)-5-fluoro-N-(5-(4-methylpiperazin-1-yl)pyridin-2-yl)pyrimidine-2-amino]
87.6	16.49	0.003	–	0.24	–	1440	CC1=Nc2c(F)cc(-c3nc(Nc4ccc(N5CCN(C)CC5)cn4)ncc3F)cc2C12CCCC2 [Example 20, 5-Fluoro-4-(7′-fluoro-2′-methylspiro[cyclopentane-1,3′-indol]-5′-yl)-N-(5-(4-methylpiperazin-1-yl)pyridin-2-yl)pyrimidine-2-amino]
2.74	69.29	0.36	–	1	–	190	CCC1(C)C(C)=Nc2c(F)cc(-c3nc(Nc4ccc(N5CCN(C)CC5)cn4)ncc3F)cc21 (stereo not shown) [Example 18, 4-(3-ethyl-7-fluoro-2,3-dimethyl-3H-indol-5-yl)-5-fluoro-N-(5-(4-methylpiperazin-1-yl)pyridin-2-yl)pyrimidine-2-amino]
